These results are taken from paper PMC11359831, “Stepwise Structural Simplification of the Dihydroxyanthraquinone Moiety of a Multitarget Rhein-Based Anti-Alzheimer Lead to Improve Drug Metabolism and Pharmacokinetic Properties” (Pharmaceutics, 2024).

Data set [1] has as its target T1, Aβ42 aggregation (Homo sapiens, UniProt P05067).
T1 construct: expressed in transfected cells; host or cells: E. coli BL21 (DE3) bearing pET28a-Aβ42
The data set is described as follows: Aβ42 aggregation inhibition in genetically modified E. coli cells (Th-S fluorescence). The class given is cell-based, Escherichia coli. The following applies: for inhibition at 10 µM: live E. coli cells overexpressing Aβ42, read-out: Aβ42 Aggregation % inh. @10 µM. Here is the method:
For Aβ42 overexpression, M9 minimal medium (10 mL) containing kanamycin (50 μg/mL) was added to a colony of E. coli BL21 (DE3) competent cells, bearing the pET28a plasmid (Novagen, Inc., Madison, WI, USA), which contains the DNA sequence encoding for Aβ42. After overnight culture, the volume necessary to obtain a 1:500 dilution was added to fresh M9 minimal medium that contained kanamycin (50 μg/mL) and thioflavin-S (Th-S, 250 µM).
For Aβ42 overexpression, the corresponding E. coli cell cultures were kept growing overnight (37 °C; 250 rpm) until they reached an OD600 = 0.6. These cultures (980 μL) were added to a mixture of 10 μL of a solution of the new compounds in DMSO and 10 μL of 100 mM isopropyl 1-thio-β-D-galactopyranoside (IPTG), to reach a final compound concentration of 10 μM. The same procedure was used for tau overexpression but employing 10 μL of 25% arabinose instead of IPTG. The resulting E. coli cultures were kept growing overnight (37 °C; 1400 rpm) using an Eppendorf Thermomixer (Hamburg, Germany). To prepare a negative control for the assay, showing the highest amount of the amyloidogenic protein, the same quantity of DMSO, without the compounds to be tested, was added to the sample. With the double purpose of obtaining positive controls devoid of the amyloidogenic proteins and assessing the potential intrinsic toxicity of the new compounds, we also prepared samples that had not been treated with either IPTG or arabinose (non-induced samples).
To assess the inhibitory activity of compounds 4–7 on Aβ42 and tau aggregation within E. coli cells, a fluorescence assay was employed, using Th-S ([…] stock solution, T1892, Sigma, St. Louis, MO, USA) in double-distilled water (Milli-Q system, Millipore, Bay City, MI, USA) and an Aminco Bowman Series 2 luminescence spectrophotometer (Aminco-Bowman AB2, SLM Aminco, Rochester, NY, USA), working at 25 °C in the wavelength range of 460–600 nm, with λex = 445 nm, slit widths of 4 nm, and λem = 485 nm. The results are given as the average of nine independent experiments, each performed in triplicate.

The test system of data set [2] is zebrafish embryos. The data set can be described thus: Fish embryo acute toxicity (FET) test in zebrafish embryos. The class given is in vivo. Particulars: 72 h of exposure, lethality. Here is the method:
Test solutions were freshly prepared for each experiment and were renewed every 24 h. The maximum tested compound concentration was 100 µM and four additional concentrations were also prepared by applying a 1:2 dilution factor. A 1% DMSO solution was used as a vehicle control.
Six-well plates were incubated at 26 ± 1 °C under a 14:10 light:dark cycle for 72 h. To assess the potential lethality of the new compounds, we followed, every 24 h, the four parameters that are outlined in the OECD Guideline No. 236: embryo coagulation, lack of somite formation, non-detachment of the tail, and absence of a heartbeat (from 48 h onward). The percentage of lethality at each concentration that was tested for the new compounds was recorded and expressed as mean ± SEM from three or more independent experiments. […] LOAEC values were determined through an ANOVA test with Bonferroni’s post-hoc test for multiple comparisons (significance threshold: p < 0.05).

Data set [3] has as its target T2, human recombinant BACE-1 (hBACE-1) (Homo sapiens, UniProt P56817).
T2 construct: purchased Invitrogen, Carlsbad, CA, USA
Set-up: method as in PMID 24568372. Particulars: cited from earlier work.

A short description of data set [4]: Plasma stability, rat plasma. The data set is classed as in vitro ADME. The following applies: 37 °C; for remaining at 1 h, 5 μM / remaining at 6 h, 5 μM: rat, plasma; for remaining at 1 h, 5 μM: read-out: Plasma Stability % Remaining Compound, rat, 1 h; for remaining at 6 h, 5 μM: read-out: Plasma Stability % Remaining Compound, rat, 6 h. Here is the method: The plasma stability of the new compounds was tested using in human, mouse, and rat plasma (Seralab). One hundred μL of 5 μM solutions of the new compounds in plasma were plated and incubated at 37 °C for 0, 60, 120, and 360 min, and then treated with 300 μL of acetonitrile and centrifuged (4000× g; 60 min; 4 °C). Sample quantification was performed by UPLC/MS/MS analysis of the resulting supernatant using a UPLC QSM Waters Acquity apparatus, equipped with a Waters ACQUITY BEH C18 1.7 μm 2.1 × 50 mm column, eluting with 0.1% formic acid in water or in acetonitrile, with a flow of 0.6 mL/min. The gradient indicated in Table 1 was used in this assay.
Compound concentration was calculated from the MS peak areas and expressed as the percentage of remaining compound at the different tested times.

Data set [5] has as its target T2, human recombinant BACE-1 (hBACE-1). The data set is described as follows: In vitro hBACE-1 inhibition (fluorometric method). The following applies: for inhibition at 15 µM: read-out: hBACE-1 % inh. @15 µM. The class given is biochemical. Here is the method:
The inhibition of human recombinant BACE-1 (hBACE-1) (Invitrogen, Carlsbad, CA, USA) by hybrids 4–7 was evaluated by a fluorometric method. The substrate (Panvera peptide, 10 μL, 250 nM final concentration) was added to a solution (10 μL) of hybrids 4–7 or buffer in control wells (20 mM sodium acetate at pH 4.5, with 0.1% w/v CHAPS). After the addition of the enzyme (10 μL, 12.91 mU), the assay solution was incubated for 1 h at 37 °C. Thereafter, STOP solution (10 μL, 2.5 M sodium acetate) was added and the fluorescence was read at […]. The DMSO concentration in the assay solution was kept <5% (v/v) to ensure no significant loss of BACE-1 activity. The background signal, determined in control wells with all the components of the assay but BACE-1, was subtracted. The fluorescence intensities in the presence of increasing concentrations or in the absence of hybrids 4–7 were compared to calculate the percent of enzyme inhibition produced by the compounds, by applying the following expression: 100 − (IFi/IFo × 100), in which IFi and IFo are the fluorescence intensities in the presence and in the absence of the compounds, respectively. Additionally, the IC50 values were calculated (GraphPad Prism 4.03 software, GraphPad Software Inc., San Diego, CA, USA) and are given as the mean ± SEM of at least two experiments, each performed in triplicate.

Data set [6] can be described thus: Plasma stability, mouse plasma. The following applies: 37 °C. The data set is classed as in vitro ADME.
The conditions of data set [7]: PAMPA-BBB.
Description: The parallel artificial membrane permeability assay for the blood–brain barrier (PAMPA-BBB) [41] was used to assess the in vitro brain permeability of the new compounds. For the assay, the compounds were dissolved in mixtures of PBS and ethanol (70:30).
A short description of data set [8]: Plasma stability, rat plasma. The following applies: 37 °C. The data set is classed as in vitro ADME.
Setting [9] is: compound at 15 µM (parenthesized values).

Each structure is given as a SMILES string. Values after ≈ are worked out from the molar mass of the structure shown.

T1 sequence (P05067 672-713): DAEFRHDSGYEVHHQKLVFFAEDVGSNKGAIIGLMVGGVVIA
T2 sequence (P56817 46-501): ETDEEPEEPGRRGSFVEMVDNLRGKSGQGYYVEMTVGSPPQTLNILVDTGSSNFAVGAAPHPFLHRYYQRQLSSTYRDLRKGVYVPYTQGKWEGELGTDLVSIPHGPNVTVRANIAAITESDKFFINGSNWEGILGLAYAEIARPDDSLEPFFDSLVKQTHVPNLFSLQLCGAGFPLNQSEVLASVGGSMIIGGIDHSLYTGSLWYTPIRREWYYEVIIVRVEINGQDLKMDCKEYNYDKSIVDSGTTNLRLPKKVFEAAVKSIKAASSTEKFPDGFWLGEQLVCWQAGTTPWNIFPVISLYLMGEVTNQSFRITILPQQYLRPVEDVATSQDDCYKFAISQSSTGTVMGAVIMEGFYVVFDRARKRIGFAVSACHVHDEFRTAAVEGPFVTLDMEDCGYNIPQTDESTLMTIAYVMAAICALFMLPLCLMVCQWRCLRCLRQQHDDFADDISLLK

Consider `CC1=CC2Cc3nc4cc(Cl)ccc4c(NCCCCCCCCCNC(=O)c4cc(O)c5c(c4)C(=O)c4cccc(O)c4C5=O)c3C(C1)C2` (centres unmarked) [Compound 3], for which the inhibition at 10 µM in data set [1] is 74.2 ± 1.6%. Further, in data set [2], the LOAEC is reported as 100 µM. Further, the “BACE-1 inhibition (in words)” value in data set [3] is listed as “found to inhibit BACE-1”. Further, the amount remaining at 1 h, 5 μM in data set [4] turned out to be 98%. The amount remaining at 6 h, 5 μM in data set [4] (6 h) came to 67.9%. Also, in data set [5], the IC50 is 1.5 ± 0.38 µM. The “% hydrolyzed in mouse plasma after 6 h” value in [6] worked out at 7.1%. The “BBB permeation class” value in data set [7] (CNS+ threshold Pe over 5.21 × 10^−6 cm/s) is “CNS+ (high BBB permeation (CNS+), with Pe (10^−6 cm/s) > 5.21)”. For the same compound, the “Brain Permeability Pe” value in data set [7] (mean ± SD) is listed as 21.5 ± 0.7 10^−6 cm s^−1. In addition, in data set [8], the “% hydrolyzed in rat plasma after 6 h” value stood at 32.1%.

`CC1=CC2Cc3nc4cc(Cl)ccc4c(NCCCCCCCCCNC(=O)c4ccc5c(c4)C(=O)c4ccccc4C5=O)c3C(C1)C2` (centres unmarked) [Compound 4, N-{9-[(3-Chloro-6,7,10,11-tetrahydro-9-methyl-7,11-methanocycloocta[b]quinolin-12-yl)amino]nonyl}anthraquinone-2-carboxamide]: in [1], the inhibition at 10 µM worked out at 73.3 ± 3.6%. Further, in data set [4], the share remaining at 1 h, 5 μM worked out at 100%. The share remaining at 6 h, 5 μM in data set [4] (6 h) turned out to be 77.2%. Also, the IC50 in [5] worked out at 2.89 ± 0.5 µM.

Turning to `CC1=CC2Cc3nc4cc(Cl)ccc4c(NCCCCCCCCCNC(=O)c4ccc5c(c4)C(=O)c4ccccc4-5)c3C(C1)C2` (centres unmarked) [Compound 5, N-{9-[(3-Chloro-6,7,10,11-tetrahydro-9-methyl-7,11-methanocycloocta[b]quinolin-12-yl)amino]nonyl}-9-fluorenone-2-carboxamide], the inhibition at 10 µM in data set [1] amounted to 69.8 ± 1.2%. Also, the share remaining at 1 h, 5 μM in data set [4] was 93.6%. The share remaining at 6 h, 5 μM in [4] (6 h) stood at 84.7%. The IC50 in [5] amounted to 5.63 ± 0.01 µM.

For the compound `CC1=CC2Cc3nc4cc(Cl)ccc4c(NCCCCCCCCCNC(=O)c4cccc(C(=O)c5ccccc5)c4)c3C(C1)C2` (centres unmarked) [Compound 6, 3-Benzoyl-N-{9-[(3-chloro-6,7,10,11-tetrahydro-9-methyl-7,11-methanocycloocta[b]quinolin-12-yl)amino]nonyl}benzamide], the inhibition at 10 µM in [1] turned out to be 72.6 ± 2.7%. The same compound showed an LOAEC in data set [2] of 50 µM. For the same compound, the fraction remaining at 1 h, 5 μM in [4] is 96%. In data set [4] (6 h), the share remaining at 6 h, 5 μM worked out at 92.4%. Further, the IC50 in [5] was at most 15 µM. In addition, the inhibition at 15 µM in data set [5] (setting [9]) was 61.5%.

As to `CC(=O)c1cccc(C(=O)NCCCCCCCCCNc2c3c(nc4cc(Cl)ccc24)CC2C=C(C)CC3C2)c1` (centres unmarked) [Compound 7, 3-Acetyl-N-{9-[(3-chloro-6,7,10,11-tetrahydro-9-methyl-7,11-methanocycloocta[b]quinolin-12-yl)amino]nonyl}benzamide], the “Aβ42 Aggregation % inh. @10 µM” value in data set [1] (live E. coli cells overexpressing Aβ42) amounted to 73.1 ± 4.8%. Moreover, the inhibition at 10 µM in [1] is 73%. In data set [4] (6 h, 5 μM), the “Plasma Stability % Remaining Compound, rat, 6 h” value was determined as 85.8%. Also, the share remaining at 1 h, 5 μM in [4] came out at 98.9%. For the same compound, the share remaining at 6 h, 5 μM in [4] (6 h) is 86%. In [5], the IC50 is at most 15 µM. The “hBACE-1 % inh. @15 µM” value in data set [5] (compound at 15 µM (parenthesized values), 15 µM) is on record as “(48.1 ± 0.3) %”. In addition, the inhibition at 15 µM in data set [5] (setting [9]) stood at 48%. Further, the Solubility (kinetic solubility, 37 °C, 2 h, PBS with 1% DMSO, nephelometry) came out at 18.1 µM (≈ 10.4 µg/mL). The “increased aqueous solubility relative to the initial lead” value (relative to lead 3) was 2 fold. Also, the “% hydrolyzed in rat plasma after 6 h” value in data set [8] came to 14.2%.
